Source: US9850247B2 (Almac Discovery Limited, priority 2013, dated 2017)

Key:
[1] = CLint estimates using human liver microsomes (Method 4); assay type: in vitro ADME; settings: pH 7.4, 1 μM compound, read-out: Mics - CLint (HLM CLint)
Summary of the method: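 Depletion measured by LC/MS/MS in MRM mode over 2–50 min after starting reactions with 1 mM NADPH. Incubations used 0.5 mg/mL human liver microsomal protein, 1 μM compound, 0.1% DMSO, pH 7.4 phosphate buffer, 37 °C. ln peak area plotted against time; the gradient gave t½ and intrinsic clearance.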

Wee-1 kinase = molecular target: T1, Wee-1 kinase (Homo sapiens, UniProt P30291); test: Measurement of Wee-1 kinase activity (ADP-Glo luminescent kit); assay type: biochemical
T1 construct: purchased Invitrogen PV3817
Summary of the method: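 ADP-Glo luminescence reads ADP made over 1 h at RT, after an aliquot of 30 μM ATP and 2.0 μg/mL poly(Lys,Tyr 4:1) substrate. Before that, the kinase sat 30 min with inhibitor in Tris-HCl/MgCl2 buffer with BSA and DTT. IC50 came from regression of percent inhibition.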

[2] = test system: phospho-cdc2 (Tyr15) in HT-29 cells; test: Effect on Cdc2 phosphorylation at Tyr15, Cell-Based ELISA Base Kit (Method 3); settings: Homo sapiens, HT-29, 8 h, eight hours incubation, normalized to total cdc2, read-out: HT29 pCDC2 method 3
Description: Method 3: Determining the Effect of Compounds on the Cdc2 phosphorylation at Tyr15, using a Cell-Based ELISA Base Kit (R&D Systems, KCB001)
The colorectal cancer cell line, HT-29 was purchased from the ATCC and maintained in McCoy's 5 A medium (Gibco®, Life technologies) supplemented with 10% Foetal Calf Serum (FCS).
The cells were trypsinised and counted, 100 μL of 8000 cells was seeded into each well of a clear-bottom black 96-well microplate and incubated overnight to allow adherence to the surface, at 37° C. and 5% CO2 in a cell culture incubator.
Test compounds were formulated in DMSO and diluted in cell culture medium supplemented with FCS. Grow medium was removed from cells and medium containing compounds dilutions was added to each well. The plate was returned to the incubator for an additional eight hours of incubation at 37° C. and 5% CO2.
Post incubation cells were fixed by replacing the compounds supplemented medium with 100 μL of 4% formaldehyde in 1× phosphate buffered saline (PBS), for 20 minutes at room temperature. Formaldehyde solution was removed and cells were washed three times with PBS. The Cell-Based ELISA assay (R&D Systems) was carried out immediately after cell fixation or the plate was sealed and fixed cells were stored in PBS at 4° C. until required (no more than two weeks).
To continue the assay, PBS was removed and cells were washed 3 times for 5 minutes with 200 μL of 1× wash buffer. Each wash step was carried out with gentle shaking. Following washes, 100 μL of 0.6% H2O2 in 1× wash buffer (quenching buffer) was added, plate was sealed and incubated for 20 minutes at room temperature. Post incubation cells were washes 3 times for 5 minutes with 200 μL of 1× wash buffer, with gentle shaking. 100 μL of blocking buffer was added to each well, the plate was re-sealed and incubated at room temperature for 1 h.
After blocking, cells were washed as described above. A primary antibody mixture was prepared by mixing the two primary antibodies, a rabbit monoclonal antibody for phospho-cdc2 (Tyr15) (Cell Signaling, #4539) and mouse monoclonal antibody for total cdc2 p34 (Santa Cruz Biotechnology, sc-54), diluted 1:25 and 1:50 in blocking buffer, respectively. 60 μL of primary antibody mixture was added to each well, the plate was sealed and incubated overnight at 4° C.
The primary antibodies were removed and cells were washed as previously described. 100 μL of secondary antibody mixture, containing horseradish-peroxidase (HRP)-conjugated goat anti-rabbit IgG and alkaline phosphatase (AP)-conjugated goat anti-mouse IgG, diluted 1:100 in blocking buffer, was added to each test well. The plate was re-sealed and incubated for 2 hours at room temperature.
The secondary antibodies were removed and cells washed 2 times with wash buffer, followed by 2 washes with PBS. Each wash step was carried out for 5 minutes with gentle shaking. PBS was removed and 75 μL of fluorogenic substrate for HRP (substrate F1) added to each well. The plate was sealed and incubated for 1 h at room temperature, in the dark. 75 μL of fluorogenic substrate for AP (substrate F2) was added directly to each well, plate re-sealed and incubated for additional 40 minutes at room temperature, protected from direct light.
Following incubation fluorescence from each well was read at 600 nm (signal from substrate 1, phosphorylated protein) and then at 450 nm (signal from substrate 2, total protein).
The percentage of phospho-cdc2 was calculated compared to DMSO control, normalized to the total cdc2 and plotted versus the concentration of inhibitor, using GraphPad Prism. Data was fitted using a non-linear regression analysis and EC50 values generated.

T1 sequence (P30291 whole entry): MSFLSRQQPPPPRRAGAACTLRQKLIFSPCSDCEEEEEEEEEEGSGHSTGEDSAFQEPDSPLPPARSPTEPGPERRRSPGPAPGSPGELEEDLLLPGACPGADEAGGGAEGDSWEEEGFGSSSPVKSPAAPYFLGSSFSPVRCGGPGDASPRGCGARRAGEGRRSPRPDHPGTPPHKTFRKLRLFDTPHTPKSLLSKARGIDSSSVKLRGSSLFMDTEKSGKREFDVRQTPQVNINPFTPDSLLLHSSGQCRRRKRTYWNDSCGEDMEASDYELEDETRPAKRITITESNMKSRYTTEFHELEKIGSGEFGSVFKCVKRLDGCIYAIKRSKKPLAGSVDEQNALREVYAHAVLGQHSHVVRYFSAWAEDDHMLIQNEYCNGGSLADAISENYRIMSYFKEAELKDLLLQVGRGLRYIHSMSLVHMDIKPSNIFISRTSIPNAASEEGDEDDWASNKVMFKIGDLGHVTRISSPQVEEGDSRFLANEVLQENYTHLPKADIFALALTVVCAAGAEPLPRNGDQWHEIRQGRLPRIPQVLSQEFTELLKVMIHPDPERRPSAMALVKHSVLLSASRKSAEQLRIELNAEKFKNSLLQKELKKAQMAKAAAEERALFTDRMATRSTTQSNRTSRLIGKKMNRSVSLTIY

Structure (SMILES)	microsomal CLint at 1 μM [1]	IC50 (Wee-1 kinase)	EC50 [2]
CN1CN(c2c(Cl)cccc2Cl)C(=O)c2cnc(Nc3ccc(N4CCNC(C)(C)C4)cc3)nc21 [Example 96, 3-(2,6-dichlorophenyl)-7-((4-(3,3-dimethylpiperazin-1-yl)phenyl)amino)-1-methyl-2,3-dihydropyrimido[4,5-d]pyrimidin-4(1H)-one]	15 to 50 µL/min/mg	≤ 10 nM	100 to 1000 nM
CN1Cc2cc(Nc3ncc4c(n3)N(C)CN(c3c(Cl)cccc3Cl)C4=O)ccc2C2(CC2)C1 [Example 76, 3-(2,6-dichlorophenyl)-1-methyl-7-((2′-methyl-2′,3′-dihydro-1′H-spiro[cyclopropane-1,4′-isoquinolin]-7′-yl)amino)-2,3-dihydropyrimido[4,5-d]pyrimidin-4(1H)-one]	≥ 50 µL/min/mg	≤ 10 nM	100 to 1000 nM
CN1CCC(c2ccc(Nc3ncc4c(n3)N(C)CN(c3c(Cl)cccc3Cl)C4=O)cc2)CC1 [Example 95, 3-(2,6-dichlorophenyl)-1-methyl-7-((4-(1-methylpiperidin-4-yl)phenyl)amino)-2,3-dihydropyrimido[4,5-d]pyrimidin-4(1H)-one]	≤ 15 µL/min/mg	≤ 10 nM	100 to 1000 nM
Cc1cccc(Cl)c1N1CN(C)c2nc(Nc3ccc(N4CC5CCC(C4)N5C)c(CO)c3)ncc2C1=O [Example 114, 3-(2-chloro-6-methylphenyl)-7-((3-(hydroxymethyl)-4-(8-methyl-3,8-diazabicyclo[3.2.1]octan-3-yl)phenyl)amino)-1-methyl-2,3-dihydropyrimido[4,5-d]pyrimidin-4(1H)-one]	≤ 15 µL/min/mg	≤ 10 nM	100 to 1000 nM
COC[C@H]1CN(c2ccc(Nc3ncc4c(n3)N(C)CN(c3c(Cl)cccc3Cl)C4=O)cc2C(O)C(F)F)CCN1 (single isomer, unassigned) [Example 162]	15 to 50 µL/min/mg	≤ 10 nM	100 to 1000 nM
Cc1cc(Nc2ncc3c(n2)N(C)CN(c2c(Cl)cccc2Cl)C3=O)ccc1N1C[C@@H]2C[C@H]1CN2C [Example 77, 3-(2,6-dichlorophenyl)-1-methyl-7-((3-methyl-4-((1S,4S)-5-methyl-2,5-diazabicyclo[2.2.1]heptan-2-yl)phenyl)amino)-2,3-dihydropyrimido[4,5-d]pyrimidin-4(1H)-one]	15 to 50 µL/min/mg	≤ 10 nM	100 to 1000 nM
CN1CN(c2c(Cl)cccc2Cl)C(=O)c2cnc(Nc3ccc(N4CCNC[C@H]4CO)cc3)nc21 [Example 127, (S)-3-(2,6-dichlorophenyl)-7-((4-(2-(hydroxymethyl)piperazin-1-yl)phenyl)amino)-1-methyl-2,3-dihydropyrimido[4,5-d]pyrimidin-4(1H)-one]	≤ 15 µL/min/mg	≤ 10 nM	≥ 1000 nM

Second part, led by results:

microsomal CLint at 1 μM [1]	IC50 (Wee-1 kinase)	Structure (SMILES)	EC50 [2]
15 to 50 µL/min/mg	≤ 10 nM	CC(=O)N1CCN(c2ccc(Nc3ncc4c(n3)N(C)CN(c3c(Cl)cccc3Cl)C4=O)cc2CN(C)C)CC1 [Example 144, 7-((4-(4-acetylpiperazin-1-yl)-3-((dimethylamino)methyl)phenyl)amino)-3-(2,6-dichlorophenyl)-1-methyl-2,3-dihydropyrimido[4,5-d]pyrimidin-4(1H)-one]	100 to 1000 nM
≤ 15 µL/min/mg	≤ 10 nM	CNCc1cc(Nc2ncc3c(n2)N(C)CN(c2c(Cl)cccc2Cl)C3=O)ccc1N1CCN(C(C)=O)CC1 [Example 143, 7-((4-(4-acetylpiperazin-1-yl)-3-((methylamino)methyl)phenyl)amino)-3-(2,6-dichlorophenyl)-1-methyl-2,3-dihydropyrimido[4,5-d]pyrimidin-4(1H)-one]	≥ 1000 nM
≤ 15 µL/min/mg	≤ 10 nM	C[C@@H]1CN(c2ccc(Nc3ncc4c(n3)N(C)CN(c3c(Cl)cccc3Cl)C4=O)cc2C(O)C(F)F)CCN1 (stereo partly drawn) [Example 134, 3-(2,6-dichlorophenyl)-7-((3-(2,2-difluoro-1-hydroxyethyl)-4-((R)-3-methylpiperazin-1-yl)phenyl)amino)-1-methyl-2,3-dihydropyrimido[4,5-d]pyrimidin-4(1H)-one]	100 to 1000 nM
≥ 50 µL/min/mg	≤ 10 nM	C[C@@H]1CN(c2ccc(Nc3ncc4c(n3)N(C)CN(c3c(Cl)cccc3Cl)C4=O)cc2CN(C)C)C[C@H](C)O1 [Example 151, 3-(2,6-dichlorophenyl)-7-((3-((dimethylamino)methyl)-4-((2S,6R)-2,6-dimethylmorpholino)phenyl)amino)-1-methyl-2,3-dihydropyrimido[4,5-d]pyrimidin-4(1H)-one]	100 to 1000 nM
≥ 50 µL/min/mg	≤ 10 nM	CN(C)CC(=O)N1CCN(c2ccc(Nc3ncc4c(n3)N(C)CN(c3c(Cl)cccc3Cl)C4=O)cc2)CC1 [Example 123, 3-(2,6-dichlorophenyl)-7-((4-(4-(2-(dimethylamino)acetyl)piperazin-1-yl)phenyl)amino)-1-methyl-2,3-dihydropyrimido[4,5-d]pyrimidin-4(1H)-one]	100 to 1000 nM
≤ 15 µL/min/mg	≤ 10 nM	CN1CN(c2c(Cl)cccc2Cl)C(=O)c2cnc(Nc3ccc(N4CCNCC4)c(CNCC(F)(F)F)c3)nc21 [Example 141, 3-(2,6-dichlorophenyl)-1-methyl-7-((4-(piperazin-1-yl)-3-(((2,2,2-trifluoroethyl)amino)methyl)phenyl)amino)-2,3-dihydropyrimido[4,5-d]pyrimidin-4(1H)-one]	≥ 1000 nM
≤ 15 µL/min/mg	≤ 10 nM	C[C@@H]1CN(c2ccc(Nc3ncc4c(n3)N(C)CN(c3c(Cl)cccc3Cl)C4=O)cc2CO)CCN1C [Example 46, (R)-3-(2,6-dichlorophenyl)-7-((4-(3,4-dimethylpiperazin-1-yl)-3-(hydroxymethyl)phenyl)amino)-1-methyl-2,3-dihydropyrimido[4,5-d]pyrimidin-4(1H)-one]	100 to 1000 nM
15 to 50 µL/min/mg	≤ 10 nM	CN1CCN(c2ccc(Nc3ncc4c(n3)N(C)CN(c3c(Cl)cccc3Cl)C4=O)cc2CO)CC1 [Example 33, 3-(2,6-dichlorophenyl)-7-((3-(hydroxymethyl)-4-(4-methylpiperazin-1-yl)phenyl)amino)-1-methyl-2,3-dihydropyrimido[4,5-d]pyrimidin-4(1H)-one]	100 to 1000 nM
≤ 15 µL/min/mg	≤ 10 nM	CN1CCC(c2ccc(Nc3ncc4c(n3)N(C)CN(c3c(Cl)cccc3Cl)C4=O)cc2CO)CC1 [Example 165, 3-(2,6-dichlorophenyl)-7-((3-(hydroxymethyl)-4-(1-methylpiperidin-4-yl)phenyl)amino)-1-methyl-2,3-dihydropyrimido[4,5-d]pyrimidin-4(1H)-one]	100 to 1000 nM
15 to 50 µL/min/mg	≤ 10 nM	CNCc1cc(Nc2ncc3c(n2)N(C)CN(c2c(Cl)cccc2Cl)C3=O)ccc1N1C[C@@H](C)O[C@@H](C)C1 [Example 148, 3-(2,6-dichlorophenyl)-7-((4-((2S,6R)-2,6-dimethylmorpholino)-3-((methylamino)methyl)phenyl)amino)-1-methyl-2,3-dihydropyrimido[4,5-d]pyrimidin-4(1H)-one]	100 to 1000 nM
